Like-named read-outs stand apart in the source and are kept apart here.

The test system of one data set is C. albicans yeast cells. The following applies: 10 mM; cited from earlier work.
Data set [1] deals with Candida albicans SC5314 strain. Briefly: Germination inhibition assay (antihyphal growth activity). The data set is classed as cell-based. The following applies: for MIC: commercial free fatty acids, gravimetrical quantification, read-out: MIC, antihyphal growth activity of individual free fatty acids. On the procedure:
The Candida albicans SC5314 strain (Fonzi, W. A. and Irwin, M. Y. 1993. Isogenic strain construction and gene mapping in Candida albicans. Genetics 134: 717-728.) was used to investigate the antihyphal activity of whey cream lipids. This strain was routinely grown as yeast cells at 30° C. in YPD medium (1% yeast extract, 2% peptone, 2% dextrose). Germination was induced by incubating cells in dextrose-free Sabouraud (Difco; Joshi, K. R., Gavin, J. B., and Bremner, D. A. 1973. The formation of germ tubes by Candida albicans in various peptone media. Sabouraudia. 11: 259-262.) at 37° C. in 96-wells microtiter plates (Costar 3595). Briefly, cells from fresh YPD cultures were harvested and washed twice with sterile water. Washed cells were suspended in dextrose-free Sabouraud at a density of 5×10^3 cells/ml and then immediately distributed to microtiter wells containing an equal volume of dextrose-free Sabouraud supplemented with different concentrations of lipids. After 15 h incubation at 37° C. in an atmospheric incubator without agitation, cells were washed and fixed with a fresh 1% formaldehyde solution. The ability of lipids to inhibit germination was determined by microscopic observations.

Data set [2] concerns Candida albicans ZK3379 strain (CAI-4 HWP1-lacZ). In words: C. albicans HWP1-lacZ beta-galactosidase and XTT assays (kinetics of germination inhibition in hyphae inducing media). The data set is classed as cell-based. The note with it: for germ tube emergence and elongation: all inducing conditions tested (dextrose-free Sabouraud, Lee's, Spider, HFM7), 0-6 h (FIG. 2). On the procedure:
Candida albicans ZK3379 strain (CAI-4 HWP1-lacZ; Hogan, D A, Vik A, Kolter R (2004). A Pseudomonas aeruginosa quorum-sensing molecule influences Candida albicans morphology. Mol Microbiol 54: 1212-1223.) was used for beta-galactosidase and XTT assays. Cells from this strain were grown in YPDA at 30° C. to a density of about 1×10^8 cells/ml (hemacytometer). These late exponentially growing cells were then washed twice with water and kept on ice until used. Germination was induced by incubating cells (final density of 5×10^5 cells/ ml) at 37° C. in 2.5 ml of either dextrose-free Sabouraud (Joshi et al., 1973), Lee's (Lee K L, Buckley H R, Campbell C C (1975). An amino acid liquid synthetic medium for the development of mycelial and yeast forms of Candida albicans. Sabouraudia 13: 148-153, Spider (Liu H, Kohler J, Fink Gr (1994). Suppression of hyphal formation in Candida albicans by mutation of a STE12 homolog. Science 266: 1723-1726 or Hypha-Forming Media (Biswas S K, Yokoyama K, Kamei K, Nishimur K, Miyaji M (2001) Inhibition of hyphal growth of Candida albicans by activated lansoprazole, a novel benzimidazole proton pump inhibitor Med Mycol 39: 283-285.), supplemented with FFAs. All lipids were dissolved in ethanol. Assays were performed in duplicate in 24-wells mictotiter plates (Costar 3526) without agitation. After appropriate incubation times (i.e. 0, 2, 4 or 6 h), microtiter plates were centrifuged for 5 min at 2000 rpm (Jouan inc. CR3i) and supernatents, discarded. XTT assays were done immediately and essentially as described (Honraet K, Goetghebeur E, Nelis H J (2005). Comparison of three assays for the quantification of Candida biomass in suspension and CDC reactor grown biofilms. J Microbiol Methods 63: 287-295). For beta-galactosidase assays, microtiter plates were frozen at −80° C. and processed later as described (Kippert F (1995). A rapid permeabilization procedure for accurate quantitative determination of beta-galactosidase activity in yeast cells. FEMS Microbiol Lett 128: 201-206; Hogan et al., 2004) but directly in microtiters plates. Absorbances were measured in 96-well microtiters plates using a microtiter plate reader (Microplate Reader MR600), equipped with filters of 410 nm (beta-galactosidase) and 490 nm (XTT), respectively.
As inhibition of germination of C. albicans by molecules could be the result of early and/or late blocking events, a more comprehensive analysis of the activity of free fatty acids was performed using multiple time points and other germ tube inducing media. Therefore, germination was monitored at 0, 2, 4 and 6 h in dextrose-free Sabouraud, Lee's, Spider and HFM7 (i.e. serum) media using the C. albicans HWP1-lacZ assay: beta-galactosidase measurements should reflect the morphological change from yeast cells to hyphal growth (Hogan et al., 2004). beta-galactosidase results were normalized using the XTT assay (Honraet et al., 2005) to correct for biomass increase. Microscopic observations of cells after 6 h incubation are also presented for each inducing conditions and correlated with beta-galactosidase data (FIG. 2).
For orientation: Tetrazolium assays rely on reduction of a dye to a coloured formazan, in cell work by metabolically active cells.

The subject of the next data set is mammalian cells. In words: Toxicity for mammalian cells in vitro. The data set is classed as cell-based. The note with it: thousand fold less concentrated solution than 10 mM; Bergsson et al., 2001; data not shown.
For another data set, the system named is A. fumigatus. In words: Antifungal assay against A. fumigatus (optical density at 630 nm). The data set is classed as cell-based. The note with it: Aspergillus fumigatus; Sabouraud, 30° C., 40 h; commercial FFA. On the procedure:
(§1) Fractionation of Blackcurrant Seed Oil. Journal of the American Oil Chemists Society 65: 755-760). […] Under constant stirring, the mixture was heated to 75° C., or until it became clear, and then cooled slowly to 2° C. After completion of urea crystallization at 2° C. (15 h), the UFFA enriched methanol phase was separated from the urea crystals by centrifugation (5 min) at 1000×g. […] Yields were determined gravimetrically. […] UV detection was used to monitor effluent at 215 nm. Water (10 ml) was added to each of the 45 collected HPLC fractions, and they were then extracted three times with hexane (3×10 ml). […] Antifungal assay using commercial FFA were done in quadruplicates. The antifungal activity was evaluated in 96-well microtiter plates (Costar 3595) using Sabouraud as incubating medium for A. fumigatus and dextrose-free Sabouraud for C. albicans. Spores of A. fumigatus (Jeanine Joly, Université de Montréal) were germinated at 25° C. on slant agar Sabouraud media. They were harvested by washing vigorously slant cultures with 5 ml of 0.9% NaCl. Coarse debris were removed by filtrating the Aspergillus spores suspension through a sterile cotton plugs inserted into a Pasteur pipet. Monodisperse spores suspensions were obtained following brief sonications in a water bath sonicator (Branson 1210). […] Blastospores of the C. albicans SC5314 strain were prepared as for germination inhibition assays (see above). […] Wells were washed three times with Sabouraud before optical reading.

Data set [3] concerns Peripheral Blood Mononuclear cells (PBMC). In words: in vitro. The note with it: human, 24 h. Here is the method:
(§2) Cytotoxicity was evaluated using Peripheral Blood Mononuclear cells (PBMC) of volunteers donors (Royal Victoria Hospital, Montreal). These cells were purified by the ficoll-Paque PLUS according to the manufacturer (Amersham-Bioscience). PBMC were used at a density of 100 000 cells/ml in RPMI 1640 (Sigma) supplemented with 10% heat-inactivated fetal bovine serum, 0.3 g/L of L-glutamine, 2 g/L sodium carbonate, 100 U/ml of penicillin and 100 μg/ml of streptomycin (Sigma). Assays were done in 96-well microtiter plates (Costar 3595) and the cytotoxicity was evaluated after 24 hours of incubation at 37° C. in a 5% CO2 atmospheric incubator using the LDH Cytotoxicity detection kit, according to the manufacturer (Roche Diagnostic). […] FFA were diluted in ethanol (96%) and no more than 1% ethanol (final concentration) was used in assays. Ethanol (1%) was used as negative control.
(§3) This method measures the release of lactate dehydrogenase (LDH) from the cytosol of damaged cells into the supernatant (Roche Diagnostic).

A short description of the next data set: in vitro. The following applies: human, Toxicity (TC50) PBMCs. Here is the method: as §2, §3
The subject of data set [4] is C. albicans SC5314 strain. Briefly: Antifungal assay against C. albicans (optical density at 630 nm). The data set is classed as cell-based, Candida albicans. The note with it: dextrose-free Sabouraud, 37° C., commercial FFA. Here is the method:
as §1

Data set [5] concerns C. albicans reporter strain ZK3379 (HWP1-lacZ). The following applies: for Relative beta-galactosidase expression (filamentous growth): 18 h, 37° C., percentage of control cultures without fatty acids. Here is the method:
The effects of fatty acids gamma-linolenic acid and alpha-linolenic acid on filamentous growth of Candida albicans were determined in a filamentation assay. C. albicans reporter strain ZK3379 (HWP1-lacZ; Hogan et al., 2004) was propagated in yeast extract-peptone-dextrose (YPD) for 24 h at 30° C. Prior to the assay, cells were washed twice with phosphate-buffered saline (PBS 1×). Flasks (125 ml) containing 10 ml of prewarmed RPMI 1640/20 mM MOPS (pH 7.0) were inoculated with washed cells at a final concentration of 10^6 cells per ml. Working solutions of fatty acids (25 mM and 6.25 mM) were prepared freshly in ethanol 70%. Fatty acids were diluted in medium at final concentrations of 100 μM and 25 μM. An equal volume (40 μl) of ethanol 70% was added to control cultures. In all cultures, the final concentration of ethanol was 0.4% (v/v). Flasks were incubated at 37° C. for 18 h with shaking (ca. 200 RPM). Cells were collected by filtration (Millipore, 0.45 μm) and washed with PBS 1×. beta-galactosidase was assayed according to the method of Rose and Botstein (1983), where crude protein extracts are prepared and the activity is normalized to the amount of protein assayed. Relative amounts of beta-galactosidase activity were used as a measure of the amount of filamentous growth.

[6] abbreviates: Candida albicans, SC5314, complete inhibition of germination, 15 h, 37° C.
Where [7] appears, read: Candida albicans, SC5314, same MIC in μg/ml (in brackets).
Setting [8] is: complete inhibition of germination, 15 h, 37° C.

As usually defined, the MIC is the smallest concentration in the dilution series that meets the test's criterion for growth inhibition. For `CCCCCCCCCCCC(=O)O` [12:0, lauric acid], the “killing C. albicans yeast cells” value in the data set on C. albicans yeast cells is reported as “highly active”. Besides, the MIC stood at 9 µM in data set [1] (setting [6]), 1.8 µg/mL in data set [1] (setting [7]) and 9 µM in data set [1] (setting [8]). In data set [2], the “germ tube emergence and elongation” value is “completely inhibited the emergence of germ tubes”. Also, the “toxicity for mammalian cells in vitro” value with mammalian cells is reported as “not toxic”.

By IC50 is commonly meant the point on the concentration scale where inhibition reaches its midpoint. High values mean a need for much substance, low ones inhibition by little substance. A word on the CC50: it is the concentration that lowers cell viability or growth by half. Low values mean greater toxicity to the cells, high ones lower toxicity to the cells. As to `CCCCCCCCCC(=O)O` [Capric acid (C10:0), capric acid], the “killing C. albicans yeast cells” value with C. albicans yeast cells was “highly active”. The results for the MIC in data set [1] (setting [6]) and in data set [1] (setting [7]) were 9 µM and 1.55 µg/mL, respectively. The “activity at inhibiting C. albicans germination” value in data set [1] (individual commercial free fatty acids, highest concentration used 81 μM) is “similarly active to lauric acid”. Further, the IC50 with A. fumigatus was 127 µM; in [4] (Candida albicans, SC5314, 40 h) it was 182 µM. In [3], the “TC50, PBMC” value is reported as “about 1.4 mM”. Also, the CC50 at 24 h in “in vitro” came to 1430 ± 32 µM. The “germ tube emergence and elongation” value in data set [2] is on record as “completely inhibited the emergence of germ tubes”. Further, in the data set on mammalian cells, the “toxicity for mammalian cells in vitro” value is “not toxic”.

`CCCC/C=C\CCCCCCCC(=O)O` [Myristoleic acid (C14:1n-5), myristoleic acid]: the MIC in data set [1] (setting [6]) amounted to 9 µM; in data set [1] (setting [7]), 2.04 µg/mL; in [1] (setting [8]), 9 µM. Besides, the IC50 in the data set on A. fumigatus turned out to be 192 µM; in [4] (Candida albicans, SC5314, 40 h), 82 µM; in [4] (40 h), 81.9 ± 9.2 µM. The same compound yielded a CC50 in data set [3] of 71.9 ± 6.2 µM. Further, half-maximal cytotoxicity in “in vitro” (CC50 at 24 h) was put at 72 µM. Besides, the “appearance of germ tubes” value is “partially inhibited the appearance of germ tubes” in data set [2] (Spider and HFM7 media); “strongly inhibited the appearance of germ tubes” in data set [2] (dextrose-free Sabouraud and Lee's inducing media).

As to `CCCCC/C=C\C/C=C\C/C=C\CCCCC(=O)O` [gamma-linolenic acid (C18:3n-6), gamma-linolenic acid], the results for the “Relative beta-galactosidase expression (filamentous growth)” value in data set [5] (25 μM) and in [5] (100 μM) were 5.9 (±6.8) % and 0.5 (±0.7) %, respectively. Further, in data set [5] (100 μM, RPMI 1640/20 mM MOPS (pH 7.0), HWP1-LacZ strain), the “germination of C. albicans” value was “completely inhibited”. Further, the “antifungal activity in RPMI 1640/20 mM MOPS media” value in data set [5] (100 μM, data not shown) was “not detected”. The IC50 was 13.4 µM in the data set on A. fumigatus and 2.34 µM in data set [4] (Candida albicans, SC5314, 40 h). Also, the CC50 at 24 h in the data set “in vitro” amounted to 41 µM.

(Values after patent US20080075786A1, “Antimicrobial agents derived from cream” (Universite de Montreal, priority 2006, published 2008).)
